Experimental data taken from patent publication US20230247989A1, “Synergistic Biocide Composition With a Polyglycerol Ester” (Arch UK Biocides Ltd, priority 2020, published 2023).

Test system: Pseudomonas aeruginosa ATCC 15442
Assay: Suspension test for synergy: log reduction of Pseudomonas aeruginosa after 5 min contact
Type: cell-based
Details: for Log Reduction: 5 minutes contact
Description: The target organism Pseudomonas aeruginosa ATCC 15442 was taken from freezer stocks and grown for 24 hours on tryptone soy agar (TSA) at 37° C. A second subculture was produced from the first and grown with the same conditions. A test suspension was then created by adding loopfuls of organism to tryptone buffered saline and adjusting the cell concentration to 1×10^8 and 5×10^8 CFU/ml using an internally established calibration curve spectrophotometer at a wavelength of 600 nm. To establish the precise CFU/ml a 1 ml aliquot was then taken from the test suspension and serially diluted down to 10^−6 and 10^−7, 1 ml of each dilution was then plated in duplicate using the pour plate method on to TSA. The plates were then incubated for 24 hours at 37° C. and enumerated.
For each biocide tested a series of 3 samples were prepared in sterile distilled water,
Test sample 1—Biocide alone (to measure basic efficacy of the biocide)
Test sample 2—Biocide in combination with polyglyceryl-10 caprylate/caprate (to measure the efficacy of the combination of biocide and polyglycerol ester)
Control—A control sample of polyglyceryl-10 caprylate/caprate was prepared in deionized water to measure the efficacy of polyglycerol ester alone.
Each test sample was prepared at a concentration 10% higher than that of the target concentration to account for the dilution effect from the addition of the test organism suspension during the test procedure.
A test mixture was prepared by adding a 0.1 ml aliquot of test organism suspension to a tube followed by 0.9 ml of test sample (prepared as above). The combination was then mixed and a timer started immediately.
Upon achieving the specified contact time the test mixture was deactivated by adding a 0.1 ml aliquot of the test mixture to 0.9 ml of neutralizing broth and the whole solution mixed. The solution was left for 5 minutes to ensure the action of the biocide was effectively neutralized.
To quantify the surviving number of organisms in the neutralized test mixture, 4×0.025 ml aliquots were taken and spot plated onto the surface of dried TSA. The plates were then incubated for 24 hours at 37° C.
For spot plating, colonies from the incubated plates were enumerated using the lower count limit of <1 and the upper count limit of >150. […] For the upper limit, if 156 colonies were counted on a plate, >150 would be recorded and 150 would be used for the calculation.
Enumeration and Calculation of T (Test Mixture) • First, the mean average of cfu per 0.025 ml spots was established using the below calculation,
Log Reduction Calculations (N0−T) • Before calculating the log reduction both N0 and T were converted into a logarithm base 10 value. For example;
The test procedure outlined above was used to test for synergy between polyglyceryl-10 caprylate/caprate (PG1000) and the various biocidal agents listed in Table 1. Varying concentrations were prepared and were tested at 5 mins for the presence of Pseudomonas aeruginosa.

Molecule: N=C(NCCCCCCNC(=N)NC(=N)Nc1ccc(Cl)cc1)NC(=N)Nc1ccc(Cl)cc1 [Chlorhexidine, reference compound]
- Log Reduction (biocide alone 65 ppm): 3.44

Molecule: CCCCCCCCCCCCN(CCCN)CCCN [N-(3-aminopropyl)-N-dodecylpropane-1,3-diamine]
- Log Reduction (biocide alone 50 ppm): 2.98

Molecule: CC(C)O [Isopropanol]
- Log Reduction (biocide alone 16%): <2.85

Molecule: CCCCCCCCCCCCN(C)C.Cl [Dodecyledimethylammonuim chloride]
- Log Reduction (biocide alone 20 ppm): 3.88

Molecule: polyglyceryl-10 caprylate/caprate [PGE Control]
- Log Reduction (PGE alone 100 ppm in deionized water): <2.92
- activity (in words) (at 100 ppm, 5 mins): little or no activity
